Legend:
Type in all cases: cell-based
SW480 colon cancer cells = assay: Cell viability assay (CellTiter-Blue); conditions: Homo sapiens, 96 h; SW480 cell viability, four days, CellTiter-Blue
Protocol: Representative compounds were screened using the following assay procedure to assess the effect on cell viability as described below.
Approximately 2×10^3 SW480 colon cancer cells were seeded into each well and allowed to incubate in the presence or absence of compound for four days at 37° C./5% CO2. Eight replicates of DMSO-treated cells served as controls and cells treated with compound were performed in duplicate.
After incubation, 20 μL of CellTiter-Blue (Promega) was added to each well allowed to incubate for approximately 3 hours. This reagent was a buffered solution which contains resazurin, metabolically active cells were able to reduce rezarurin (blue) into resorufin (pink) which was highly fluorescent. This measured fluorescence was used as a readout for cell viability.

[1] = test system: Wnt activity (Sp5-Luc reporter, SW480 colon carcinoma cells); assay: Screening assay for Wnt activity (Sp5-Luc reporter gene assay in SW480 cells); conditions: Homo sapiens; Sp5-Luc reporter, SW480 cells, incubated overnight
From the text: The screening assay for Wnt activity is described as follows. Reporter cell lines can be generated by stably transducing cancer cell lines (e.g., colon cancer) or primary cells (e.g., IEC-6 intestinal cells) with a lentiviral construct that includes a Wnt-responsive promoter driving expression of the firefly luciferase gene.
SW480 colon carcinoma cells were transduced with a lentiviral vector expressing luciferase with a human Sp5 promoter consisting of a sequence of eight TCF/LEF binding sites. SW480 cells stably expressing the Sp5-Luc reporter gene and a hygromycin resistance gene were selected by treatment with 150 μg/mL of hygromycin for 7 days. These stably transduced SW480 cells were expanded in cell culture and used for all further screening activities. […] For Sp5-Luc reporter gene assays, the cells were plated at 4,000 cells/well in 384-well plates with medium containing 1% fetal bovine serum and incubated overnight at 37° C. and 5% CO2. Following incubation, 20 μl of BrightGlo luminescence reagent (Promega) was added to each well of the 384-well assay plates. The plates were placed on an orbital shaker for 2 min and then luminescence was quantified using the Envision (Perkin Elmer) plate reader. Readings were normalized to DMSO only treated cells, and normalized activities were utilized for EC50 calculations using the dose-response log (inhibitor) vs. response-variable slope (four parameters) nonlinear regression feature available in GraphPad Prism 5.0 (or Dotmatics).

IL-6 (THP-1 cells) = assay: IL-6 inhibition in LPS-stimulated THP-1 cells (HTRF); conditions: Homo sapiens; for EC50: IL6 by HTRF, THP-1 cells, 500 ng/mL LPS, 22 hours; for inhibition at 10 µM: THP-1, read-out: percent inhibition at 10 M
Protocol: THP-1 cells were cultured in basal media with 1% FBS for 24 hours before the start of the assay. […] THP-1 cells were plated at 5000 cells/well in the 384-well plates and incubated at 37° C. for 2 h. 500 ng/mL of LPS was added after 2 hours and cells were incubated for another 22 hours at 37° C. Plates were spun in a centrifuge for 1 minute at […] and a mixture of anti-IL6 XL665, and anti-IL6 Cryptate diluted in reconstitution buffer (Cisbio Inc.) was added to each well. Following incubation for 3 hrs at room temperature, Homogeneous Time-Resolved Fluorescence (HTRF) was measured using the Envision (Perkin Elmer) at 665 nm and […]. The ratio of fluorescence at 665 nm to 620 nm was used as a readout for IL6 quantification. All samples were processed in duplicate. Readings were normalized to DMSO treated cells and normalized activities were utilized for EC50 calculations using the dose-response log (inhibitor) vs. response-variable slope (four parameters) nonlinear regression feature available in GraphPad Prism 5.0 (or Dotmatics).

[2] = test system: primary human mesenchymal stem cells (hMSCs); assay: Induction of chondrogenesis in hMSCs (Rhodamine B / Nile Red nodule imaging); conditions: for EC50: concentration required to induce 50% levels of chondrogenesis vs TGF-β3 positive control, read-out: Conc (nM) of 50% TGF-β3 activity; for Emax: maximum activity relative to TGF-β3 (10 ng/mL) positive control, read-out: Max. Activity as % TGF-β3 activity
From the text: Representative compounds were screened using primary human mesenchymal stem cells (hMSCs) to determine their ability to induce chondrogenesis (process by which cartilage is developed).
Primary human mesenchymal stem cells (hMSCs) were purchased from Lonza (Walkersville, Md.) and expanded in Mesenchymal Stem Cell Growth Media (Lonza). Cells between passage 3 and 6 were used for the experiments.
Area of nodules in each well was normalized to the average of 3 DMSO treated wells on the same plate using Excel (Microsoft Inc.). The normalized averages (fold change over DMSO) of 2 or 3 replicate wells for each compound concentration were calculated. Due to solubility limitations of some of the compounds, curve fitting was incomplete leading to inaccurate EC50 determinations.
Using TGF-β3 as a positive control, the concentration of representative compounds required to induce 50% levels of chondrogenesis is reported. In addition, the maximum activity of each compound and the respective dose that each compound reached maximum chondrogenesis activity is reported.

[3] = test system: primary human fibroblasts derived from IPF patients (LL29 cells) treated with TGF-β1; assay: Inhibition of the fibrotic process (αSMA staining) in TGF-β1-treated fibroblasts; conditions: Fibroblast, 96 h; for EC50: % αSMA-positive LL29 cells, TGF-β1 20 ng/mL, 4 days; for inhibition at 10 µM: read-out: percent inhibition at 10 μM
Protocol: Representative compounds were screened using primary human fibroblasts (derived from IPF patients) treated with TGF-β1 to determine their ability to inhibit the fibrotic process.
LL29 cells are plated at 1,500 cells/well in 80 μL/well F12 medium supplemented with 1% Fetal Bovine Serum. […] Wells treated with TGF-P1 and containing DMSO were used as controls. […] Following incubation for 4 days, SYTOX green nucleic acid stain (Life Technologies [Thermo Fisher Scientific]) was added to the wells at a final concentration of 1 μM and incubated at room temperature for 30 min.

Row | SMILES | EC50 (SW480 colon cancer cells) | EC50 [1] | EC50 (IL-6 (THP-1 cells)) | EC50 [2] | Emax [2] | EC50 [3] | inhibition at 10 µM (IL-6 (THP-1 cells)) | inhibition at 10 µM [3]
1 | O=C(Cc1ccccc1)Nc1cncc(-c2ccc3[nH]nc(-c4cc5cnccc5[nH]4)c3c2)c1 [Compound 262, N-(5-(3-(1H-Pyrrolo[3,2-c]pyridin-2-yl)-1H-indazol-5-yl)pyridin-3-yl)-2-phenylacetamide] | 3490 nM | 1760 nM | 1700 nM | 10 nM | 119% | 757 nM | – | –
2 | CC(C)(C)CC(=O)Nc1cncc(-c2ccc3[nH]nc(-c4cc5c(N6CCCCC6)nccc5[nH]4)c3c2)c1 [Compound 184, 3,3-Dimethyl-N-(5-(3-(4-(piperidin-1-yl)-1H-pyrrolo[3,2-c]pyridin-2-yl)-1H-indazol-5-yl)pyridin-3-yl)butanamide] | 1540 nM | 2020 nM | 8900 nM | 900 nM | 79% | 1470 nM | – | –
3 | CC(C)C(=O)Nc1cncc(-c2ccc3[nH]nc(-c4cc5cnccc5[nH]4)c3c2)c1 [Compound 261, N-(5-(3-(1H-Pyrrolo[3,2-c]pyridin-2-yl)-1H-indazol-5-yl)pyridin-3-yl)isobutyramide] | 333 nM | 140 nM | 343 nM | 2700 nM | 181% | 362 nM | – | –
4 | CCCCC(=O)Nc1cncc(-c2ccc3[nH]nc(-c4cc5c(-c6ccccc6F)nccc5[nH]4)c3c2)c1 [Compound 75, N-(5-(3-(4-(2-Fluorophenyl)-1H-pyrrolo[3,2-c]pyridin-2-yl)-1H-indazol-5-yl)pyridin-3-yl)pentanamide] | 221 nM | 345 nM | 39 nM | 2700 nM | 76% | 254 nM | – | –
5 | COc1cncc(-c2ccc3[nH]nc(-c4cc5c(-c6ccco6)nccc5[nH]4)c3c2)c1 [Compound 991, 3-(4-(Furan-2-yl)-1H-pyrrolo[3,2-c]pyridin-2-yl)-5-(5-methoxypyridin-3-yl)-1H-indazole] | 1500 nM | 1010 nM | 7620 nM | – | 36% | – | – | –
6 | Fc1ccc(-c2nccc3[nH]c(-c4n[nH]c5ccc(C6=CCNCC6)cc45)cc23)cc1 [Compound 522, 3-(4-(4-Fluorophenyl)-1H-pyrrolo[3,2-c]pyridin-2-yl)-5-(1,2,3,6-tetrahydropyridin-4-yl)-1H-indazole] | 2170 nM | 3780 nM | > 10000 nM | – | – | 1430 nM | 4.1% | –

Continued by falling EC50 (SW480 colon cancer cells), values first:

Row | EC50 (SW480 colon cancer cells) | EC50 [1] | EC50 (IL-6 (THP-1 cells)) | EC50 [2] | SMILES | Emax [2] | EC50 [3] | inhibition at 10 µM (IL-6 (THP-1 cells)) | inhibition at 10 µM [3]
7 | 4820 nM | 5270 nM | 8870 nM | – | CN1CCN(c2nccc3[nH]c(-c4n[nH]c5ccc(-c6cncc(NC(=O)C7CCCCC7)c6)cc45)cc23)CC1 [Compound 247, N-(5-(3-(4-(4-Methylpiperazin-1-yl)-1H-pyrrolo[3,2-c]pyridin-2-yl)-1H-indazol-5-yl)pyridin-3-yl)cyclohexanecarboxamide] | 38% | 3350 nM | – | –
8 | 4190 nM | 9380 nM | > 10000 nM | – | CN1CCN(c2nccc3[nH]c(-c4n[nH]c5ccc(-c6cncc(CN7CCCC7)c6)cc45)cc23)CC1 [Compound 238, 3-(4-(4-Methylpiperazin-1-yl)-1H-pyrrolo[3,2-c]pyridin-2-yl)-5-(5-(pyrrolidin-1-ylmethyl)pyridin-3-yl)-1H-indazole] | 31% | > 10000 nM | 40.5% | 45.7%
9 | 3420 nM | 890 nM | > 10000 nM | 10 nM | c1cc2[nH]c(-c3n[nH]c4ccc(-c5cncc(CN6CCCCC6)c5)cc34)cc2c(-c2ccoc2)n1 [Compound 323, 3-(4-(Furan-3-yl)-1H-pyrrolo[3,2-c]pyridin-2-yl)-5-(5-(piperidin-1-ylmethyl)pyridin-3-yl)-1H-indazole] | 177% | 1150 nM | 16.6% | –
10 | 1410 nM | 3620 nM | 9010 nM | 30 nM | Fc1ccc(-c2nccc3[nH]c(-c4n[nH]c5ccc(-c6cncc(CN7CCCC7)c6)cc45)cc23)cc1 [Compound 42, 3-(4-(4-Fluorophenyl)-1H-pyrrolo[3,2-c]pyridin-2-yl)-5-(5-(pyrrolidin-1-ylmethyl)pyridin-3-yl)-1H-indazole] | 98% | 1340 nM | – | –
11 | 1350 nM | 1320 nM | 350 nM | – | CC(C)(C)C(=O)Nc1cncc(-c2ccc3[nH]nc(-c4cc5c(N6CCCCC6)nccc5[nH]4)c3c2)c1 [Compound 176, N-(5-(3-(4-(Piperidin-1-yl)-1H-pyrrolo[3,2-c]pyridin-2-yl)-1H-indazol-5-yl)pyridin-3-yl)pivalamide] | 35% | 650 nM | – | –
12 | 906 nM | 955 nM | 232 nM | – | O=C(Nc1cncc(-c2ccc3[nH]nc(-c4cc5c(N6CCCCC6)nccc5[nH]4)c3c2)c1)C1CCC1 [Compound 189, N-(5-(3-(4-(Piperidin-1-yl)-1H-pyrrolo[3,2-c]pyridin-2-yl)-1H-indazol-5-yl)pyridin-3-yl)cyclobutanecarboxamide] | 34% | 337 nM | – | –
13 | 776 nM | 2940 nM | 383 nM | – | CN(C)Cc1cncc(-c2ccc3[nH]nc(-c4cc5c(-c6cccc(F)c6)nccc5[nH]4)c3c2)c1 [Compound 13, 1-(5-(3-(4-(3-Fluorophenyl)-1H-pyrrolo[3,2-c]pyridin-2-yl)-1H-indazol-5-yl)pyridin-3-yl)-N,N-dimethylmethanamine] | 42% | 2760 nM | – | –
14 | 546 nM | 93 nM | 93 nM | – | Nc1cncc(-c2ccc3[nH]nc(-c4cc5c(N6CCCCC6)nccc5[nH]4)c3c2)n1 [Compound 992, 6-(3-(4-(Piperidin-1-yl)-1H-pyrrolo[3,2-c]pyridin-2-yl)-1H-indazol-5-yl) pyrazin-2-amine] | – | > 10000 nM | – | 0%
15 | 93 nM | 50 nM | 34 nM | 2700 nM | CCCC(=O)Nc1cncc(-c2ccc3[nH]nc(-c4cc5c(-c6cccc(F)c6)nccc5[nH]4)c3c2)c1 [Compound 17, N-(5-(3-(4-(3-Fluorophenyl)-1H-pyrrolo[3,2-c]pyridin-2-yl)-1H-indazol-5-yl)pyridin-3-yl)butyramide] | 106% | 19 nM | – | –

Source: patent US10463651B2, “3-(1H-pyrrolo[3,2-C]pyridin-2-YL)-1H-indazoles and therapeutic uses thereof” (Samumed, LLC, priority 2015, dated 2019)
